Measured values from US9499538B2, “Estrogen receptor modulators and uses thereof” (Seragon Pharmaceuticals, Inc., priority 2012, dated 2016).

How the values were obtained:
MCF-7 cells = experiment: Breast Cancer Cell Viability Assays (MCF-7, CellTiter-Glo); format: cell-based; details: 5 days' compound exposure; for IC50: Homo sapiens, MCF7, 120 h
In short: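 Percent viability, background-subtracted against untreated wells, was taken from CellTiter-Glo luminescence after 5 days' exposure of MCF-7 cells. Compounds were tested at eleven semilog concentrations, final 0.3–0.000003 μM, in RPMI containing 10% FBS.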

ER-α in MCF-7 cells = molecular target: T1, ER-α in MCF-7 cells (Homo sapiens, UniProt P03372); experiment: Breast Cancer Cell ER-α In Cell Western Assay (SP1); format: cell-based; details: 4 or 24 hr post compound addition; for Emax: MCF7, SP1 antibody, read-out: ER-α In Cell Western Assay (SP1) Max Response; for DC50: SP1 antibody, read-out: ER-α In Cell Western Assay (SP1) IC50
T1 construct: endogenous in cells; host or cells: MCF-7
T1 sequence (P03372 1-595): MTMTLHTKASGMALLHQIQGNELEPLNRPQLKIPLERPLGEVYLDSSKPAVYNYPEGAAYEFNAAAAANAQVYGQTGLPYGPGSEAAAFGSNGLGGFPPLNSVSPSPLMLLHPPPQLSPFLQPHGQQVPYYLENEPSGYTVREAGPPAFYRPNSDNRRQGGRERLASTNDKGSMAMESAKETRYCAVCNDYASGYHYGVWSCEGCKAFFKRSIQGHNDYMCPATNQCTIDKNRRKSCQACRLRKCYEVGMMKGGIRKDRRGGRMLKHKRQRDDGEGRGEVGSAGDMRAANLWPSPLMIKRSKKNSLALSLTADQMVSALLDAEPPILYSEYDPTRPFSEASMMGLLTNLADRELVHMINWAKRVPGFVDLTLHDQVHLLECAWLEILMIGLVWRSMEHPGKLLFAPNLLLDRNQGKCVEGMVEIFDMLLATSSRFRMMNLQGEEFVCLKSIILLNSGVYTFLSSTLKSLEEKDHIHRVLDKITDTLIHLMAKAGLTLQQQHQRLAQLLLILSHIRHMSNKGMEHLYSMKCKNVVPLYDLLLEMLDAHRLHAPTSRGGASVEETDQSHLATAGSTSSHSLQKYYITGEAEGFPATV
In short: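 ER-α levels quantified by in-cell western: SP1 signal normalised to DRAQ5 DNA stain, relative to untreated cells (% ER). Compounds at 0.3–0.000003 μM final, 11-point semilog series, 4 or 24 h exposure of MCF-7 cells grown in charcoal-stripped serum.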

For O=C(O)/C=C/c1ccc(/C(=C(\c2ccncc2C(F)(F)F)C2CCC2)c2ccc3[nH]nc(F)c3c2)cc1 [Example 47, (E)-3-(4-((E)-2-Cyclobutyl-1-(3-fluoro-1H-indazol-5-yl)-2-(3-(trifluoromethyl)pyridin-4-yl)vinyl)phenyl)acrylic acid], the “MCF7 Viability Assay Max Response” value (MCF-7 cells) was “++ (++ = a single % value ≧ 40%)”, the IC50 (MCF-7 cells) was at most 0.1 µM and the Emax (ER-α in MCF-7 cells) was at least 40%. For the same compound, the DC50 (ER-α in MCF-7 cells) was at most 0.1 µM.
N#Cc1ccc(/C(=C(\c2ccc(/C=C/C(=O)O)cc2)c2ccc3[nH]nc(F)c3c2)C2CCC2)c(F)c1 [Example 48, (E)-3-(4-((E)-2-(4-Cyano-2-fluorophenyl)-2-cyclobutyl-1-(3-fluoro-1H-indazol-5-yl)vinyl)phenyl)acrylic acid] was tested, and the “MCF7 Viability Assay Max Response” value (MCF-7 cells) was “++ (++ = a single % value ≧ 40%)”, the IC50 (MCF-7 cells) was at most 0.1 µM and the Emax (ER-α in MCF-7 cells) was at least 40%. The DC50 (ER-α in MCF-7 cells) was at most 0.1 µM.
N#Cc1cc(F)ccc1/C(=C(\c1ccc(/C=C/C(=O)O)cc1)c1ccc2[nH]nc(F)c2c1)C1CCC1 [Example 49, (E)-3-(4-((E)-2-(2-Cyano-4-fluorophenyl)-2-cyclobutyl-1-(3-fluoro-1H-indazol-5-yl)vinyl)phenyl)acrylic acid] was tested, and the “MCF7 Viability Assay Max Response” value (MCF-7 cells) was “++ (++ = a single % value ≧ 40%)”, the IC50 (MCF-7 cells) was at most 0.1 µM and the Emax (ER-α in MCF-7 cells) was at least 40%. For the same compound, the DC50 (ER-α in MCF-7 cells) was at most 0.1 µM.
With Cc1cc(C#N)ccc1/C(=C(\c1ccc(/C=C/C(=O)O)cc1)c1ccc2[nH]nc(F)c2c1)C1CCC1 [Example 50, (E)-3-(4-((E)-2-(4-Cyano-2-methylphenyl)-2-cyclobutyl-1-(3-fluoro-1H-indazol-5-yl)vinyl)phenyl)acrylic acid] the “MCF7 Viability Assay Max Response” value (MCF-7 cells) was “++ (++ = a single % value ≧ 40%)”, the IC50 (MCF-7 cells) was at most 0.1 µM and the Emax (ER-α in MCF-7 cells) was at least 40%. The DC50 (ER-α in MCF-7 cells) was at most 0.1 µM.
In the case of CS(=O)(=O)c1ccc(/C(=C(\c2ccc(/C=C/C(=O)O)cc2)c2ccc3[nH]nc(F)c3c2)C2CCC2)c(F)c1 [Example 51, (E)-3-(4-((E)-2-Cyclobutyl-1-(3-fluoro-1H-indazol-5-yl)-2-(2-fluoro-4-(methylsulfonyl)phenyl)vinyl)phenyl)acrylic acid], the “MCF7 Viability Assay Max Response” value (MCF-7 cells) is reported as “++ (++ = a single % value ≧ 40%)”, the IC50 (MCF-7 cells) is reported as at most 0.1 µM and the Emax (ER-α in MCF-7 cells) is reported as at least 40%. For the same compound, the DC50 (ER-α in MCF-7 cells) was at most 0.1 µM.
For O=C(O)/C=C/c1ccc(/C(=C(\c2ccncc2F)C2CCC2)c2ccc3[nH]nc(F)c3c2)cc1 [Example 52, (E)-3-(4-((E)-2-Cyclobutyl-1-(3-fluoro-1H-indazol-5-yl)-2-(3-fluoropyridin-4-yl)vinyl)phenyl)acrylic acid], the “MCF7 Viability Assay Max Response” value (MCF-7 cells) was “++ (++ = a single % value ≧ 40%)”, the IC50 (MCF-7 cells) was at most 0.1 µM and the Emax (ER-α in MCF-7 cells) was at least 40%. For the same compound, the DC50 (ER-α in MCF-7 cells) was at most 0.1 µM.
With N#Cc1ccc(/C(=C(\c2ccc(/C=C/C(=O)O)cc2)c2ccc3[nH]ncc3c2)C2CCC2)c(F)c1 [Example 53, (E)-3-(4-((E)-2-(4-Cyano-2-fluorophenyl)-2-cyclobutyl-1-(1H-indazol-5-yl)vinyl)phenyl)acrylic acid] the “MCF7 Viability Assay Max Response” value (MCF-7 cells) was “++ (++ = a single % value ≧ 40%)”, the IC50 (MCF-7 cells) was at most 0.1 µM and the Emax (ER-α in MCF-7 cells) was at least 40%. The DC50 (ER-α in MCF-7 cells) was at most 0.1 µM.
With N#Cc1cc(F)ccc1/C(=C(\c1ccc(/C=C/C(=O)O)cc1)c1ccc2[nH]ncc2c1)C1CCC1 [Example 54, (E)-3-(4-((E)-2-(2-Cyano-4-fluorophenyl)-2-cyclobutyl-1-(1H-indazol-5-yl)vinyl)phenyl)acrylic acid] the “MCF7 Viability Assay Max Response” value (MCF-7 cells) was “++ (++ = a single % value ≧ 40%)”, the IC50 (MCF-7 cells) was at most 0.1 µM and the Emax (ER-α in MCF-7 cells) was at least 40%. It also gave a DC50 (ER-α in MCF-7 cells) of at most 0.1 µM.
In the case of Cc1cc(C#N)ccc1/C(=C(\c1ccc(/C=C/C(=O)O)cc1)c1ccc2[nH]ncc2c1)C1CCC1 [Example 55, (E)-3-(4-((E)-2-(4-Cyano-2-methylphenyl)-2-cyclobutyl-1-(1H-indazol-5-yl)vinyl)phenyl)acrylic acid], the “MCF7 Viability Assay Max Response” value (MCF-7 cells) is reported as “++ (++ = a single % value ≧ 40%)”, the IC50 (MCF-7 cells) is reported as at most 0.1 µM and the Emax (ER-α in MCF-7 cells) is reported as at least 40%. The DC50 (ER-α in MCF-7 cells) was at most 0.1 µM.
CC/C(=C(/c1ccc(/C=C/C(=O)O)cc1)c1ccc2[nH]nc(F)c2c1)c1cccc(Oc2cncc(S(C)(=O)=O)n2)c1 [Example 56, (E)-3-(4-((E)-1-(3-Fluoro-1H-indazol-5-yl)-2-(3-((6-(methylsulfonyl)pyrazin-2-yl)oxy)phenyl)but-1-en-1-yl)phenyl)acrylic acid] was tested, and the “MCF7 Viability Assay Max Response” value (MCF-7 cells) was “++ (++ = a single % value ≧ 40%)”, the IC50 (MCF-7 cells) was over 0.1 µM and the Emax (ER-α in MCF-7 cells) was at least 40%. The DC50 (ER-α in MCF-7 cells) was at most 0.1 µM.
CC/C(=C(/c1ccc(/C=C/C(=O)O)cc1)c1ccc2[nH]nc(F)c2c1)c1cccc(Oc2cnc(S(C)(=O)=O)cn2)c1 [Example 57, (E)-3-(4-((E)-1-(3-Fluoro-1H-indazol-5-yl)-2-(3-((5-(methylsulfonyl)pyrazin-2-yl)oxy)phenyl)but-1-en-1-yl)phenyl)acrylic acid] was tested, and the “MCF7 Viability Assay Max Response” value (MCF-7 cells) was “++ (++ = a single % value ≧ 40%)”, the IC50 (MCF-7 cells) was at most 0.1 µM and the Emax (ER-α in MCF-7 cells) was at least 40%. The DC50 (ER-α in MCF-7 cells) was at most 0.1 µM.
CC/C(=C(/c1ccc(/C=C/C(=O)O)cc1)c1ccc2[nH]nc(F)c2c1)c1ccc(Oc2cncc(S(C)(=O)=O)n2)cc1 [Example 58, (E)-3-(4-((E)-1-(3-Fluoro-1H-indazol-5-yl)-2-(4-((6-(methylsulfonyl)pyrazin-2-yl)oxy)phenyl)but-1-en-1-yl)phenyl)acrylic acid] was tested, and the “MCF7 Viability Assay Max Response” value (MCF-7 cells) was “++ (++ = a single % value ≧ 40%)”, the IC50 (MCF-7 cells) was over 0.1 µM and the Emax (ER-α in MCF-7 cells) was at least 40%. It also gave a DC50 (ER-α in MCF-7 cells) of over 0.1 µM.
In the case of CC/C(=C(/c1ccc(/C=C/C(=O)O)cc1)c1ccc2[nH]nc(F)c2c1)c1ccc(Oc2cnc(S(C)(=O)=O)cn2)cc1 [Example 59, (E)-3-(4-((E)-1-(3-Fluoro-1H-indazol-5-yl)-2-(4-((5-(methylsulfonyl)pyrazin-2-yl)oxy)phenyl)but-1-en-1-yl)phenyl)acrylic acid], the “MCF7 Viability Assay Max Response” value (MCF-7 cells) is reported as “++ (++ = a single % value ≧ 40%)”, the IC50 (MCF-7 cells) is reported as at most 0.1 µM and the Emax (ER-α in MCF-7 cells) is reported as at least 40%. For the same compound, the DC50 (ER-α in MCF-7 cells) was at most 0.1 µM.
With N#Cc1ccc(/C(=C(\c2ccc(/C=C/C(=O)O)cc2)c2ccc3[nH]ncc3c2F)C2CCC2)c(F)c1 [Example 60, (E)-3-(4-((E)-2-(4-Cyano-2-fluorophenyl)-2-cycobutyl-1-(4-fluoro-1H-indazol-5-yl)vinyl)phenyl)acrylic acid] the “MCF7 Viability Assay Max Response” value (MCF-7 cells) was “++ (++ = a single % value ≧ 40%)”, the IC50 (MCF-7 cells) was at most 0.1 µM and the Emax (ER-α in MCF-7 cells) was at least 40%. The DC50 (ER-α in MCF-7 cells) was at most 0.1 µM.
N#Cc1cc(Cl)ccc1/C(=C(\c1ccc(/C=C/C(=O)O)cc1)c1ccc2[nH]ncc2c1F)C1CCC1 [Example 61, (E)-3-(4-((E)-2-(4-Chloro-2-cyanophenyl)-2-cyclobutyl-1-(4-fluoro-1H-indazol-5-yl)vinyl)phenyl)acrylic acid] was tested, and the “MCF7 Viability Assay Max Response” value (MCF-7 cells) was “++ (++ = a single % value ≧ 40%)”, the IC50 (MCF-7 cells) was at most 0.1 µM and the Emax (ER-α in MCF-7 cells) was at least 40%. It also gave a DC50 (ER-α in MCF-7 cells) of at most 0.1 µM.
For N#Cc1ccc(/C(=C(\c2ccc(/C=C/C(=O)O)cc2)c2ccc3[nH]nc(F)c3c2)C2CCC2)c(C#N)c1 [Example 62, (E)-3-(4-((E)-2-Cyclobutyl-2-(2,4-dicyanophenyl)-1-(3-fluoro-1H-indazol-5-yl)vinyl)phenyl)acrylic acid], the “MCF7 Viability Assay Max Response” value (MCF-7 cells) was “++ (++ = a single % value ≧ 40%)”, the IC50 (MCF-7 cells) was at most 0.1 µM and the Emax (ER-α in MCF-7 cells) was at least 40%. The DC50 (ER-α in MCF-7 cells) was at most 0.1 µM.
CC/C(=C(/c1ccc(/C=C/C(=O)O)cc1)c1ccc2[nH]nc(F)c2c1)c1ccc(OC)cc1C [Example 63, (E)-3-(4-((E)-1-(3-Fluoro-1H-indazol-5-yl)-2-(4-methoxy-2-methylphenyl)but-1-en-1-yl)phenyl)acrylic acid] was tested, and the “MCF7 Viability Assay Max Response” value (MCF-7 cells) was “++ (++ = a single % value ≧ 40%)”, the IC50 (MCF-7 cells) was at most 0.1 µM and the Emax (ER-α in MCF-7 cells) was at least 40%. It also gave a DC50 (ER-α in MCF-7 cells) of at most 0.1 µM.
COc1ccc(/C(=C(\c2ccc(/C=C/C(=O)O)cc2)c2ccc3[nH]ncc3c2)C2CCC2)c(C)c1 [Example 64, (E)-3-(4-((E)-2-Cyclobutyl-1-(1H-indazol-5-yl)-2-(4-methoxy-2-methylphenyl)vinyl)phenyl)acrylic acid] was tested, and the “MCF7 Viability Assay Max Response” value (MCF-7 cells) was “++ (++ = a single % value ≧ 40%)”, the IC50 (MCF-7 cells) was at most 0.1 µM and the Emax (ER-α in MCF-7 cells) was at least 40%. The DC50 (ER-α in MCF-7 cells) was at most 0.1 µM.
With COc1ccc(/C(=C(\c2ccc(/C=C/C(=O)O)cc2)c2ccc3[nH]nc(F)c3c2)C2CCC2)c(C)c1 [Example 65, (E)-3-(4-((E)-2-Cyclobutyl-1-(3-fluoro-1H-indazol-5-yl)-2-(4-methoxy-2-methylphenyl)vinyl)phenyl)acrylic acid] the “MCF7 Viability Assay Max Response” value (MCF-7 cells) was “++ (++ = a single % value ≧ 40%)”, the IC50 (MCF-7 cells) was at most 0.1 µM and the Emax (ER-α in MCF-7 cells) was at least 40%. It also gave a DC50 (ER-α in MCF-7 cells) of at most 0.1 µM.
In the case of N#Cc1cc(F)ccc1/C(=C(\c1ccc(/C=C/C(=O)O)cc1)c1ccc2[nH]ncc2c1F)C1CCC1 [Example 66, (E)-3-(4-((E)-2-(2-Cyano-4-fluorophenyl)-2-cyclobutyl-1-(4-fluoro-1H-indazol-5-yl)vinyl)phenyl)acrylic acid], the “MCF7 Viability Assay Max Response” value (MCF-7 cells) is reported as “++ (++ = a single % value ≧ 40%)”, the IC50 (MCF-7 cells) is reported as at most 0.1 µM and the Emax (ER-α in MCF-7 cells) is reported as at least 40%. It also gave a DC50 (ER-α in MCF-7 cells) of at most 0.1 µM.
